The results in this text go back to article PMC7127853 (Bioorganic & Medicinal Chemistry, 2011).

In data set [1] the test system is human embryonic lung (HEL) fibroblasts. Kind of data set: Cytotoxicity, cell morphology. Type of data set: cell-based. Particulars: HEL cells; minimum cytotoxic concentration altering cell morphology.
For a further data set, the system named is Reovirus-1. Kind of data set: Antiviral assay, Reovirus-1 in Vero cells. Type of data set: cell-based. The conditions noted are these: read-out: Antiviral activity: EC50 Reovirus-1 (Vero).
The test system of data set [2] is African green monkey cells (Vero). Kind of data set: Cytotoxicity, cell morphology. Type of data set: cell-based.
Data set [3] has as its system Madin Darby canine kidney cells (MDCK). Kind of data set: Cytotoxicity, cell morphology. Type of data set: cell-based.
The next data set concerns HIV-1 (IIIB). Briefly: Anti-HIV-1 assay in CEM cells. Type of data set: cell-based, human immunodeficiency virus type 1. The conditions noted are these: compared with HDP–PMEA of ref [12].
The test system of data set [4] is human cytomegalovirus (HCMV) strain AD-169. Briefly: Antiviral assay, HCMV AD-169 in HEL cells. Type of data set: cell-based. The conditions noted are these: compared with TDP/HDP (S)-HPMPC of ref [11].

One may read the EC50 as the concentration needed to bring the measured effect to its halfway point.

Consider `Nc1ccn(C[C@@H](CO)OCP(=O)(O)O)c(=O)n1.O.O` [(S)-HPMPC, Cidofovir], for which, in data set [1], the “Cytotoxicity Cell morphology (MCC) (HEL)” value is on record as above 317 μM.
Take `Nc1nc2c(ncn2COCCO)c(=O)[nH]1` [Acyclovir]: the “Cytotoxicity Cell morphology (MCC) (HEL)” value in data set [1] is given as above 222 μM.
Consider `O=c1[nH]c(=O)n([C@H]2C[C@H](O)[C@@H](CO)O2)cc1/C=C/Br` [Brivudin], for which the “Cytotoxicity Cell morphology (MCC) (HEL)” value in data set [1] is given as above 150 μM.
Regarding `Nc1ncnc2c1ncn2CCOCP(=O)(OCCCCCCCCCCO)OCCCCCCCCCCO` [Compound 5, Bis(10-Hydroxydecyl) ester of 9-[2-(phosphonomethoxy)ethyl]adenine], the EC50 with Reovirus-1 is above 34 µM.
With `Nc1ncnc2c1ncn2CCOCP(=O)(OCCOCCCCCCCCCCO)OCCOCCCCCCCCCCO` [Compound 9, Bis{2-[(10-Hydroxydecyl)oxy]ethyl} ester of 9-[2-(phosphonomethoxy)ethyl]adenine], the “Cytotoxicity Cell morphology (MCC) (HEL)” value in data set [1] stood at 148 μM. For the same molecule, in the data set on Reovirus-1, the 50% effective concentration (EC50) is above 29.7 µM. Moreover, the “Cytotoxicity Cell morphology (MCC) Vero” value in data set [2] is given as 148 μM. The “Cytotoxicity Cell morphology (MCC) MDCK” value in data set [3] was 29.7 μM.
For `CCOCCOCCOCCOCCOCCOCCOP(=O)(O)COCCn1cnc2c(N)ncnc21` [Compound 12, 3,6,9,12,15,18-Hexaoxaeicosyl ester of 9-[2-(phosphonomethoxy)ethyl]adenine], the “Loss of anti-HIV activity compared to HDP–PMEA” value in the data set on HIV-1 (IIIB) is reported as > 10^7 fold.
Regarding `Nc1ccn(C[C@@H](CO)OCP(=O)(O)OCCOCCOCCOCCOCCOCCO)c(=O)n1` [Compound 16, 14-Hydroxy-3,6,9,12-tetraoxaheptadecyl ester of (S)-1-[3-hydroxy-2-(phophonomethoxy)propyl]cytosine], in data set [4], the “Drop of activity against CMV versus analogous simple alkoxyalkyl ester” value is listed as 400- to 1000 fold.
In the case of `Nc1nc(O)c2ncn(COC(CO)CO)c2n1` [Ganciclovir], in data set [1], the “Cytotoxicity Cell morphology (MCC) (HEL)” value was above 392 μM.
With `CCOC(=O)C1=C[C@@H](OC(CC)CC)[C@H](NC(C)=O)[C@@H](N)C1` [Oseltamivir], in data set [3], the “Cytotoxicity Cell morphology (MCC) MDCK” value is on record as above 100 μM.
For the molecule `NC(=O)c1ncn([C@@H]2O[C@H](CO)[C@@H](O)[C@H]2O)n1` [Ribavirin, reference compound], in the data set with Reovirus-1, the concentration for a half-maximal effect (EC50) is at least 174 µM. The “Cytotoxicity Cell morphology (MCC) MDCK” value in data set [3] was above 100 μM.
